According to publication PMC12010937, “Evaluation of FXR Activity in Pollutants Identified in Sewage Sludge and Subsequent in Vitro and in Vivo Characterization of Metabolic Effects of Triphenyl Phosphate” (Environmental Health Perspectives, 2025):

Target: T1, human FXR-LBD (GST-FXR-LBD) (Homo sapiens, UniProt Q96RI1)
T1 construct: the human FXR-LBD (residues 234–472) was expressed as a GST fusion protein GST-FXR-LBD; made in house; host or cells: E. coli BL21(DE3)
T1 sequence (Q96RI1 234-472 isoform Q96RI1-2): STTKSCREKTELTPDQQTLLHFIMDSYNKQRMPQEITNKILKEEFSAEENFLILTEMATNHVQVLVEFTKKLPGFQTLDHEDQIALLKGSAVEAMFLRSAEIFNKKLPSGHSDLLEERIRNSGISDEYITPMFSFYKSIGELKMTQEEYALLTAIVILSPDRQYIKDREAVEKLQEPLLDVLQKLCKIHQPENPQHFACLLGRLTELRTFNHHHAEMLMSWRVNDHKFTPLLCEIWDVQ
Assay: HTRF coactivator recruitment assay, antagonist mode (in the presence of 50 μM CDCA)
Format: biochemical

[1] = read-out: Relative antagonist activity (%)

Structure (SMILES): O=P(Oc1ccccc1)(Oc1ccccc1)Oc1ccccc1 [TPHP, triphenyl phosphate]
- activity at 1.95 µM (1.95 μM compound + 50 μM CDCA, replicates, read-out: Relative antagonist activity (%)): 97.2%
- activity at 3.9 µM (3.90 μM compound + 50 μM CDCA, replicates, read-out: Relative antagonist activity (%)): 97.3%
- activity at 31.25 µM (31.25 μM compound + 50 μM CDCA, replicates, read-out: Relative antagonist activity (%)): 87.3%
- Relative activity, antagonist mode (50 μM compound in the presence of 50 μM CDCA, standardized against positive control DY268 (50 μM = 100%)): 42.69%
- activity at 62.5 µM (62.50 μM compound + 50 μM CDCA, replicates, read-out: Relative antagonist activity (%)): 76.5%
- activity at 250 µM (250.00 μM compound + 50 μM CDCA, standardized to DMSO and 50 μM CDCA, replicates, read-out: Relative antagonist activity (%)): 58.1%
- IC50 (read-out: IC50, inhibition of CDCA-induced coactivator recruitment to FXR): 70.6 µM
- activity at 0.98 µM [1]: 99.2%
- activity at 7.8 µM [1]: 95.9%
- activity at 125 µM [1]: 64.3%
- activity at […] [1]: 90.6%
